In patent publication US20150274690A1, “Strigolactone Compositions And Uses Thereof” (Asilomar Bio, Inc., priority 2013, published 2015):

Columns and labels:
Striga hermonthica seeds = settings: 10^-8 M concentrations; cited from earlier work
cut flowers = assay: Vase life extension of cut flowers; type: in vivo
Experimental: This example determines the effect of the application of a plant propagation material comprising strigolactone or analogs or mimics thereof on the onset of water-stress symptoms in cut flowers during storage, shipping, and/or life in retail or consumer environment. We test a wide range of concentrations to focus our investigations of the effects of the plant propagation material on cut flowers. Indicators of water-limitation stress in flowers are measured (approximately daily). We take cut flowers, apply a plant propagation material in irrigation water, and place in a normal storage environment (e.g., regular day-night cycles, room temperature). The concentration of the strigolactone or analog or mimic thereof in the plant propagation material spanned a concentration range from 1 gram per liter to 1 picogram per liter. We then monitor plants daily for the presence of water stress indicators and shelf life, such as flower and leaf rolling (wilting), turgor of stems, chlorophyll content, and loss of petals.
Various concentrations of the strigolactone mimic were added to the irrigation water of the cut flowers. The vase life for cut flowers treated with water-only was approximately 4 days, whereas the vase life for the cut flowers treated with the plant propagation material was approximately 6-7 days.

Alfalfa [1] = assay: Drought tolerance in alfalfa seedlings; type: in vivo; settings: 1 mg/mL; irrigation stopped; approximately 7 days post-treatment
Experimental: Alfalfa was grown from seeds for 14 days. Seedlings were treated with 1 mg/mL AB01 or mock treated. Irrigation was stopped after treatment and seedlings were monitored for symptoms of water limitation stress.

[2] = test system: Dekalb 67-86 RR corn seedlings; assay: Acute water stress in corn seedlings (leaf rolling score); type: in vivo; settings: 40 mL of 0.1 mM or 1.0 mM; 6th day without irrigation
Experimental: Corn seedlings were scored as unstressed, moderately water stressed and severely water stressed as measured by visual inspection of leaf rolling, a response of corn to water stress. Dekalb 67-86 RR corn seeds were planted and then irrigated through 7 days after emergence in a greenhouse setting. Seedlings were then treated with 40 mL of water, 0.1 mM AB01 or 1.0 mM AB01 and irrigation ceased. On the 6th day without irrigation, seedlings were scored for water stress. Seedlings with open leaves were scored as unstressed; seedlings with partial leaf rolling were scored as moderately stressed; seedlings with completely rolled leaves were scored as severely stressed.

Alfalfa [3] = assay: Salinity tolerance in alfalfa seedlings; type: in vivo; settings: 1 mg/mL; irrigated every 48 hours with 35 g/L NaCl; after 5 days
Experimental: Alfalfa was grown from seeds for 14 days. Seedlings were treated with 1 mg/mL AB01 or mock treated. After treatment, plants were irrigated with 100 mL water containing 35 g/L dissolved salt (NaCl). Irrigation was performed every 48 hours and plants monitored for symptoms of salinity stress.

Seeds of O. cumana = assay: Germination triggering of parasitic weed seeds; type: in vivo; settings: 48 hours post-treatment; AB01 compared with 5-dS
Experimental: Seeds of O. cumana were primed by incubation on glass fiber filters in darkness at room temperature for 3 days. Specified concentrations of AB01 or 5-dS were applied and seeds were monitored at 48 hours post-treatment. Germination was evident by appearance of haustoria. Experiments were performed in triplicate.

[4] = test system: A. thaliana mutants lacking MAXI cytochrome P450 activity; assay: Complementation of Arabidopsis mutant deficient in strigolactone biosynthesis; type: in vivo, Arabidopsis thaliana; settings: 1 uM as an irrigation supplement
Experimental: To further validate the bioactivity of AB01 we tested whether the compound could complement mutants of the model plant Arabidopsis thaliana that are deficient in strigolactone biosynthesis. […] We grew MAXI A. thaliana under standard conditions and added 1 uM AB01 as an irrigation supplement, or a mock treatment. […] Thus, the synthetic AB01 is sufficiently similar to strigolactone to both to trigger Striga germination as well as substitute for the natural compound in a model plant.

Wheat = assay: Drought tolerance in greenhouse wheat; type: in vivo; settings: 1 mg in 100 mL water; irrigation stopped; 7 days post treatment
Experimental: Wheat was grown in greenhouse conditions from seed for 6 weeks with adequate irrigation. Plants were treated with 1 mg of AB01 resuspended in acetone and diluted in 100 mL water, or mock treated as a control. Irrigation was stopped and plants monitored for symptoms of drought stress.

Striga = assay: Field trial in Striga infested fields, Siaya County, Kenya; type: in vivo; settings: 1 gram per acre sprayed 1 week prior to planting
Experimental: Field trial was performed from August 2013 to January 2014 in Siaya County, Kenya. AB01 treated plots were sprayed with a 1 gram per acre dose 1 week prior to planting. Treatment was accomplished by resuspending solid AB01 in 1 mL of acetone, and diluting in 4000 L of water. 3 replicate treated and untreated plots (100 m2 each) were performed. […] (C) The biomass of Striga from each plot was collected and measured after harvest.

Tomato seedlings = assay: Salinity tolerance in tomato seedlings; type: in vivo; settings: 10 mg/mL; 29.2 g/L NaCl irrigation 24 hours after treatment; 6 hours after salt irrigation
Experimental: Tomato seedlings were treated with 10 mg/mL AB01 or mock treated. 24 hours after treatment, they were irrigated with 250 mL water containing 29.2 g/L salt (NaCl).

[5] = test system: corn (Dekalb hybrid 68-05); assay: Corn field trial, Hays County, Tex., not irrigated; type: in vivo
Experimental: Field trial was performed from April to July 2014 in Hays County, Tex. Dekalb hybrid 68-05 was planted at a density of 25,000 plants per acre (30″rows with 8″spacing). The field was top-dressed with 80 lbs/ac nitrogen. The field was not irrigated. AB01 treated plots were sprayed with a 2 gram per acre dose at the tasseling (VT) stage. Spraying was accomplished by resuspending solid AB01 in 0.5 mL of acetone, and diluting in water for a spray volume of 1 gallon per 500 square feet. Experiments were performed in triplicate […] The fraction of fertilized ears was measured by visual inspection of the ear silk at the R2-R3 stage. Unfertilized silks that appear yellow/green, while fertilized silks appear reddish brown. Completely unfertilized ears have silks that are completely yellow/green, fertilized ears appear brown, while ears with an incomplete degree of fertilized silks have a mixed population of silks. […] Ears were visually inspected at harvest to monitor kernel set (the number of fully formed kernels in the mature ear). […] Ears volume was measured in the field at the R3 stage to calculate ear volume. The length and circumference of each ear was measure, and volume was calculated by treating the ear as a cylinder. Approximately 100 ears from each plot were measured. […] After harvest, ears were shelled and kernels counted and weighed to quantitate the ‘thousand kernel weight’ (TKW), or average mass of kernels in the trial. AB01 treated plots yielded kernels averaging 30% higher mass than control plots. Ears from control and treated plots were harvested, shelled, and moisture tested to quantitate dry mass. Control plots averaged 120 bushels per acre, while AB01 treated plots averaged 143 bushels per acre, a 19% increase. Grain yield is calculated at 15% moisture, a standard measure of harvest output.

Seeds of Striga asiatica = assay: Triggering Striga germination (seed germination bioassay); type: in vivo; settings: for bioactivity: induction of Striga germination (in words): radicle emergence from seeds
Experimental: (B) Bioactivity of synthetic SL. Seeds of Striga asiatica were exposed to SL (right) or a mock treatment (left). […] (C) Synthetic biological pathway for the production of SL in yeast, consisting of enzymes of plant and microbial origin. We tested the ability of AB01 to trigger the germination of Striga seeds. Seeds of Striga asiatica were conditioned by incubation in the dark at 30 degrees for 7 days, and dilutions of the AB01 material in water were applied. We observed that concentrations of 1 nanogram per liter and greater were able to trigger germination of approximately 30% of the seeds, which is similar to published efficiencies and activity for plant-derived strigolactone (FIG. 1A-B).

CC1=CC(OC=C2C(=O)OC3C4=C(CC23)C(O)CCC4(C)C)OC1=O (stereo not drawn) [ent-strigol]
activity in germination studies of Striga hermonthica seeds (Striga hermonthica seeds): 22%

CC1=CC(O/C=C2\C(=O)O[C@]3(C)CCC4C(C)(C)CCC[C@]4(C)[C@@H]23)OC1=O (stereo partly shown) [AB01]
vase life of cut flowers (cut flowers; added to irrigation water, various concentrations, water-only approximately 4 days): 6 to 7 days | vase life extension (cut flowers; versus water-only control): 50-60% | appearance of seedlings under water limitation stress (Alfalfa [1]): treated seedlings appeared robust | fraction of seedlings scored unstressed / severely water stressed [2]: decreased the fraction of severely stressed seedlings while increasing the fraction of unstressed seedlings in a dose-dependent manner | symptoms of salinity stress (chlorosis, vigor) (Alfalfa [3]): displayed significantly higher vigor | germination triggering efficiency (appearance of haustoria) (Seeds of O. cumana): Significant differences in germination triggering efficiency | impact on phenotype of strigolactone-deficient mutant [4]: visible impact on the phenotype of the mutant | symptoms of drought stress (wilting) (Wheat): appeared vigourous | Striga emergence and Striga-related stress in plots (Striga): few signs of Striga-related stress and parasite emergence | biomass of Striga per plot after harvest (Striga): significant reduction in the mass of Striga present | count of emergent Striga per plot (Striga): few parasites in treated plots | increase of grain yields compared to untreated plots (Striga): 25% | symptoms of salinity shock (wilting) (Tomato seedlings): appeared unstressed | increase of harvest grain yield over control plots ([5]; 2 gram per acre spray at VT): 19% | average kernel mass (thousand kernel weight), higher than control plots ([5]; 2 gram per acre spray at VT, after harvest): 30% | harvest grain yield ([5]; 2 gram per acre spray at VT, calculated at 15% moisture, control plots 120): 143 bushels per acre | ear volume ([5]; 2 gram per acre spray at VT, measured at R3 stage, vs mock): significantly higher volumes | kernel set at harvest ([5]; 2 gram per acre spray at VT, visual inspection, vs mock): more complete kernel set and few signs of kernel abortion | fraction of fertilized / unfertilized ears ([5]; 2 gram per acre spray at tasseling (VT), ear silk inspected at R2-R3 stage, vs mock): decreased the fraction of unfertilized ears while increasing the fraction of fertilized ears | fraction of Striga seeds triggered to germinate (Seeds of Striga asiatica; at 1 nanogram per liter and greater): approximately 30% | concentrations able to trigger germination of Striga seeds (Seeds of Striga asiatica; dilutions in water, seeds conditioned in the dark at 30 degrees for 7 days): ≥ 1 nanogram per liter | bioactivity: induction of Striga germination (in words) (Seeds of Striga asiatica): graded dose-response behavior | bioactivity: induction of Striga germination (in words) (Seeds of Striga asiatica; listed as Synthetic SL): potent bioactivity, with nanograms of material inducing germination of Striga seeds | bioactivity: induction of Striga germination (in words) (Seeds of Striga asiatica; listed as synthetic SL): displayed bioactivity | bioactivity: induction of Striga germination (in words) (Seeds of Striga asiatica; listed as synthetically produced SL): effective at germinating seeds of Striga asiatica

CC1=C[C@H](O/C=C2/C(=O)O[C@@H]3C4=C(C[C@H]23)C(O)CCC4(C)C)OC1=O (single isomer, unassigned; (+)) [(+)-strigol, (+)-Strigol]
activity in germination studies of Striga hermonthica seeds (Striga hermonthica seeds): 93%

CC1=C[C@H](O/C=C2/C(=O)O[C@@H]3C4=C(CCCC4(C)C)CC23)OC1=O (stereo partly shown) [5-dS, 5-deoxystrigol, reference compound]
germination triggering efficiency (appearance of haustoria) (Seeds of O. cumana): Significant differences in germination triggering efficiency
